Assay results reported in ChEMBL document CHEMBL1201862, “PubChem BioAssay data set” (2004).
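Test compounds were applied to cells in 96-well plates for 48 hours at 5 doses. GI50: concentration for 50% inhibition of growth.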 Activity calls are given as the source filed them. Rule as the data show it: active = GI50 up to about 1.1 µM and inactive = higher.

Experiments:
Test in all cases: NCI tumour cell line growth inhibition, 48 h
A498 = test system: A498
CAKI-1 = test system: CAKI-1
HCT-15 = test system: HCT-15
HL-60 = test system: HL-60
HOP-62 = test system: HOP-62
HT-29 = test system: HT-29
IGROV-1 = test system: IGROV-1
LOX IMVI = test system: LOX IMVI
Malme-3M = test system: Malme-3M
NCI-H23 = test system: NCI-H23
NCI-H460 = test system: NCI-H460
NCI-H522 = test system: NCI-H522
OVCAR-5 = test system: OVCAR-5
RPMI-8226 = test system: RPMI-8226
SF-295 = test system: SF-295
SF-539 = test system: SF-539
SN12C = test system: SN12C
SR = test system: SR
UACC-257 = test system: UACC-257
UACC-62 = test system: UACC-62

Structure (SMILES) | GI50 (A498) | GI50 (CAKI-1) | GI50 (HCT-15) | GI50 (HL-60) | GI50 (HOP-62) | GI50 (HT-29) | GI50 (IGROV-1) | GI50 (LOX IMVI) | GI50 (Malme-3M) | GI50 (NCI-H23) | GI50 (NCI-H460) | GI50 (NCI-H522) | GI50 (OVCAR-5) | GI50 (RPMI-8226) | GI50 (SF-295) | GI50 (SF-539) | GI50 (SN12C) | GI50 (SR) | GI50 (UACC-257) | GI50 (UACC-62)
CO[C@H]1C[C@H](O[C@H]2CC[C@@]3(C)[C@H](CC[C@@H]4[C@@H]3CC[C@]3(C)[C@@H](C5=CC(=O)OC5)CC[C@]43O)C2)O[C@H](C)[C@H]1O | 0.0113 µM (active) | < 0.01 µM (active) | < 0.01 µM | < 0.01 µM (active) | < 0.01 µM (active) | < 0.01 µM (active) | < 0.01 µM (active) | < 0.01 µM (active) | < 0.01 µM (active) | < 0.01 µM (active) | < 0.01 µM (active) | < 0.01 µM (active) | < 0.0149 µM (active) | < 0.01 µM (active) | < 0.01 µM (active) | < 0.01 µM (active) | < 0.01 µM (active) | < 0.01 µM (active) | < 0.0137 µM (active) | < 0.0125 µM (active)
Cc1ccccc1NC(=O)c1nc(S)nc(N)c1-c1ccccc1C | > 100 µM (inactive) | > 100 µM (inactive) | > 100 µM | > 100 µM (inactive) | > 100 µM (inactive) | > 100 µM (inactive) | > 100 µM (inactive) | > 100 µM (inactive) | > 100 µM (inactive) | > 100 µM (inactive) | > 100 µM (inactive) | > 100 µM (inactive) | > 100 µM (inactive) | > 100 µM (inactive) | > 100 µM (inactive) | > 100 µM (inactive) | > 100 µM (inactive) | > 100 µM (inactive) | > 100 µM (inactive) | > 100 µM (inactive)
